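Step 1: Grow cells in 96-well plates. Step 2: Expose to compound for 48 hours at 5 concentrations. Step 3: Interpolate endpoints linearly; if unreached, use highest concentration. GI50: concentration for 50% inhibition of growth. TGI is the concentration that stops growth completely.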
Key:
Experiment in all cases: NCI anticancer screen, dose series, 48 h
MCF7 breast = tested on: MCF7 breast
PC-3 prostate = tested on: PC-3 prostate
HS 578T breast = tested on: HS 578T breast
CCRF-CEM leukemia = tested on: CCRF-CEM leukemia
LOX IMVI melanoma = tested on: LOX IMVI melanoma
OVCAR-4 ovarian = tested on: OVCAR-4 ovarian
SN12C renal = tested on: SN12C renal
RPMI-8226 leukemia = tested on: RPMI-8226 leukemia
EKVX NSCLC = tested on: EKVX NSCLC
UO-31 renal = tested on: UO-31 renal

SMILES	TGI (MCF7 breast)	TGI (PC-3 prostate)	TGI (HS 578T breast)	TGI (CCRF-CEM leukemia)	TGI (LOX IMVI melanoma)	TGI (OVCAR-4 ovarian)	TGI (SN12C renal)	TGI (RPMI-8226 leukemia)	TGI (EKVX NSCLC)	TGI (UO-31 renal)	GI50 (MCF7 breast)	GI50 (PC-3 prostate)	GI50 (HS 578T breast)	GI50 (CCRF-CEM leukemia)	GI50 (LOX IMVI melanoma)	GI50 (OVCAR-4 ovarian)	GI50 (SN12C renal)	GI50 (RPMI-8226 leukemia)	GI50 (EKVX NSCLC)	GI50 (UO-31 renal)
CCOC(=O)C1Cc2c(cc3c4c(cccc24)N(C(C)=O)C3)N(C)C1 (stereo not given)	> 100 µM	> 100 µM	9.07 µM	> 100 µM	> 100 µM	> 100 µM	> 100 µM	> 100 µM	> 100 µM	> 100 µM	–	–	–	–	–	–	–	–	–	–
CC(=O)O[C@H]1C(=O)[C@@]2(C)C(C(OC(=O)c3ccccc3)[C@]3(O)C[C@H](OC(=O)C(OC(=O)CCCC(=O)NCCCN(C)C)C(NC(=O)c4ccccc4)c4ccccc4)C(C)=C1C3(C)C)C1(OC(C)=O)COC1C[C@@H]2O (stereo not given in full)	48.5 µM	43 µM	0.0151 µM	9.58 µM	19.2 µM	> 87.9 µM	75.5 µM	28.7 µM	> 100 µM	64 µM	–	–	–	–	–	–	–	–	–	–
C=C=C(CC1CCCCC1=O)S(=O)(=O)c1ccccc1 (stereo not given)	> 10 µM	> 10 µM	> 10 µM	7.24 µM	> 10 µM	> 10 µM	> 10 µM	> 4.76 µM	> 10 µM	> 10 µM	–	–	–	–	–	–	–	–	–	–
CS(=O)(=O)Nc1cncc(-c2ccc3ncnc(Nc4ccc(F)c(Cl)c4)c3c2)c1	8.77 µM	15 µM	4.38 µM	13 µM	10.2 µM	96.6 µM	15.2 µM	5.42 µM	7.01 µM	13.8 µM	1.49 µM	2.69 µM	1.07 µM	1.38 µM	1.73 µM	4.96 µM	2.6 µM	2.24 µM	0.888 µM	1.76 µM
Fc1cccc(COc2ccc(Nc3ncnc4sc(-c5cccs5)cc34)cc2Cl)c1	8.42 µM	> 20.4 µM	> 14.9 µM	> 25 µM	> 25 µM	8.66 µM	> 25 µM	> 25 µM	> 20.4 µM	> 24.1 µM	0.75 µM	> 10.7 µM	> 8.44 µM	> 25 µM	> 14.6 µM	2.06 µM	9.2 µM	> 25 µM	4.74 µM	5.78 µM
Cc1cc2nc3c4cc(O)ccc4n(CCN(C)C)c3nc2cc1C	3.26 µM	2.3 µM	5.41 µM	6 µM	–	3.63 µM	12.4 µM	2.63 µM	9.96 µM	2.07 µM	0.45 µM	0.578 µM	1.49 µM	0.518 µM	–	1.34 µM	0.586 µM	0.417 µM	2.25 µM	0.292 µM
COc1ccc(C2CC(c3cccc(Nc4ccnc5cc(Cl)ccc45)c3)=NN2C=O)cc1 (stereo not given)	> 100 µM	> 100 µM	16.9 µM	–	6.8 µM	> 100 µM	> 100 µM	> 24 µM	> 100 µM	> 100 µM	0.361 µM	0.577 µM	0.367 µM	0.434 µM	0.584 µM	0.94 µM	0.807 µM	3.64 µM	1.19 µM	0.989 µM
CC(C)c1[nH]nc(C(N)=O)c1N=NN(C)C	> 100 µM	> 100 µM	> 100 µM	> 100 µM	> 100 µM	> 100 µM	> 100 µM	> 100 µM	> 100 µM	2.19 µM	–	–	–	–	–	–	–	–	–	–
CC1=CC(=O)C2=C(C)CCC3C(C)C(=O)OC3C12 (stereo not given)	> 100 µM	> 100 µM	> 100 µM	> 100 µM	> 100 µM	> 100 µM	> 100 µM	> 100 µM	> 100 µM	> 100 µM	–	–	–	–	–	–	–	–	–	–
CC(=O)c1ccc2c(c1)c1cc(C(C)=O)ccc1n2CCNC(C)C	1.11 µM	1.76 µM	4.77 µM	2.65 µM	0.526 µM	2.9 µM	2.07 µM	1.05 µM	4.97 µM	0.704 µM	0.294 µM	0.317 µM	0.828 µM	0.455 µM	0.211 µM	0.37 µM	0.325 µM	0.308 µM	0.548 µM	0.2 µM
C=C1CC[C@@H]2[C@](C)(COC(C)=O)[C@H](OC(C)=O)CC[C@@]2(C)[C@@H]1CC(Nc1ccc(S(=O)(=O)NC(C)=O)cc1)C1=CCOC1=O (stereo not given in full)	11.3 µM	16.8 µM	38.8 µM	6.26 µM	2.42 µM	13.7 µM	5.4 µM	6.53 µM	20.9 µM	13.2 µM	1.92 µM	6.56 µM	8.45 µM	1.93 µM	1.25 µM	4.14 µM	1.78 µM	1.84 µM	10.8 µM	3.71 µM
NNC(=S)N/N=C(\C(=O)Nc1cccc(O)c1)C1C(=O)NC(=S)NC1=O	> 100 µM	> 100 µM	> 100 µM	> 100 µM	> 100 µM	> 100 µM	> 100 µM	> 100 µM	> 100 µM	> 100 µM	–	–	–	–	–	–	–	–	–	–
Cc1cc(O)c(=O)cc2c1C[C@H]1CC(C)(C)/C=C/C[C@]3(C)Oc4cc(=O)c(O)cc(C)c4C[C@H]3C[C@H](O)[C@@]1(C)O2	> 100 µM	23.5 µM	> 100 µM	1.21 µM	–	> 100 µM	> 29.2 µM	2.97 µM	> 46.2 µM	0.198 µM	< 0.01 µM	< 0.01 µM	0.0339 µM	0.0163 µM	–	0.0172 µM	< 0.0133 µM	0.0185 µM	0.0172 µM	0.0213 µM
O=c1c2c(=NCCN3CCCC3)cc3c(=O)n(CCCN4CCOCC4)c(=O)c4c(-c5ccc(CN6CCCC6)cc5)cc(c(O)n1CCCN1CCOCC1)c2c4-3	0.446 µM	0.168 µM	0.57 µM	1.05 µM	0.234 µM	0.23 µM	1.37 µM	0.409 µM	0.484 µM	0.231 µM	0.0284 µM	0.0278 µM	0.132 µM	0.0673 µM	0.0369 µM	0.0491 µM	< 0.0221 µM	0.0368 µM	0.0828 µM	0.038 µM
